In data set [1] the test system is normal human fibroblasts (NHDF) and stromal cells isolated from human normal bone marrow. Kind of data set: Replicative lifespan (RLS) of normal cells in tissue culture. The class given is cell-based. The note with it: normal fibroblasts and mesenchymal cells. The source says: (§1) FIGS. 1A-1I provide graphs and images showing a new high throughput method for simultaneous detection of senescence associated SAβG activity and ATP in culture of normal pre-aged cells identified two potent anti-aging scaffolds. (A). General schema of HTS. (B). […] (C). Structures and corresponding tautameric forms of lead compounds. (D) Evaluation of possible genotoxic effect of experimental drugs in modified Ames test. 4-Nitroquinoline 1-oxide (4NQO) was used as a positive control. […] The general schema of RLS measurement in different cell types. (F) VA and N2N1 considerably extend RLS of normal human fibroblasts (NHDF) and stromal cells isolated from human normal bone marrow. (G). […] (I). Upper panel: Morphological appearance of NHDF at late passages with or without treatment. Lower panel: Cells were also fixed in para-formaldehyde and stained to detect SAβG.
The inventors developed a new high-throughput screening (HTS) method for identification of anti-aging drugs (FIG. 1). The novel method was specifically designed for simultaneous detection of β-galactosidase activity in cell lysate followed by ATP detection by standard luciferase based assay. […] Altogether, the procedure allowed a simultaneous quantifiable detection of senescence associated β-galactosidase (SAβG) activity and evaluation of ATP level as a sign of improved proliferative capacity or cytotoxicity. […]

Data set [2] can be described thus: Modified Ames test for genotoxic effect. The note with it: 4NQO positive control.
Source text: as §1

For data set [3], the system named is hematopoietic colony assays. The data set can be described thus: Hematologic toxicity in hematopoietic colony assays. The class given is cell-based. An excerpt: They have first applied them in a battery of tissue culture assays measuring i) exhaustion kinetics of HSC and ii) hematologic toxicity. […] The inventors then focused our studies on HSC performance measured in CFU assay and in LTC-IC (FIG. 2), the best in vitro surrogate assay for the quantification and functional assessment of HSCs.

Data set [4] deals with HSC/progenitors from normal bone marrows. Kind of data set: CFU and LTC-IC assays, normal bone marrow. The class given is cell-based, human. Conditions: for colonies formation: tissue culture derived from normal bone marrows; for total number of cells at end of 1st part of LTC-IC assay: versus untreated samples. An excerpt: FIGS. 2A-2G provide graphs and images showing N2N1 and VA support HSC/progenitors populations under pressure of differentiation and tissue culture stress in vitro and in vivo. General schema of CFU (A) and LTC-IC assays (B). […] Representative result of three NBM is shown. (D) The morphology of cells at the end of 1st part of LTC-IC assay is shown. The total number of cells at this step of experiment was always larger in the samples treated with experimental drugs. (E) Treatment of mice with N2N1 promotes maintenance of normal HSC in vivo. Competitive repopulation assay performed on CD45.2 mice treated with N2N1. Summary of four animals, three hematopoietic tissues. […] Representative result of three patients is shown.
While these compounds may have many applications, the inventors have focused on potential usage of these agents to improve the function of HSC in BMF. They have first applied them in a battery of tissue culture assays measuring i) exhaustion kinetics of HSC and ii) hematologic toxicity. […] The inventors then focused our studies on HSC performance measured in CFU assay and in LTC-IC (FIG. 2), the best in vitro surrogate assay for the quantification and functional assessment of HSCs. The potential positive impact of identified pro-survival catalysts on viability and propagation of HSC was evaluated in methylcellulose cultures, classic CFU assay, long-term culture colony-initiating (LTC-IC) cell assays (FIGS. 2A, B and C) and competitive repopulation assay based on CD45.1/2 mouse model (FIG. 2E).
As a starting point for clinical application of identified redox catalysts, the inventors tested them on their ability to stimulate hematopoiesis in normal and damaged bone marrow cells, isolated from the patients with severe AA (FIGS. 2C and F). Very promising data was obtained, confirming the original idea that these small molecules can support propagation of both normal HSC and stem cells presented in damaged or disease bone marrow.

Data set [5] has as its system mitochondrial respiration rate. Kind of data set: Mitochondrial respiration and glycolysis on Seahorse apparatus. Type of data set: cell-based. Conditions: within few minutes or even hours after addition. An excerpt:
Based on results obtained on tissue cultured cells (increased RLS) and an increase in the numbers of HSC surrogate cells (LTC-IC or CFU), the inventors set their future goal to develop a novel pharmacological treatment for AA patients and potentially for other BMF. They have examined the most prominent features of cellular aging: telomere shortening, mitochondrial dysfunction or decline in respiratory capacity and shift in intracellular redox balance toward more oxidized environment. […] The only persistent effect of VA was considerable reduction in global protein disulfide bonds (up to 30%) detected by Elman's reagent or direct labelling of reduced sulfhydryl groups with biotin-switch assay (FIG. 3A). That brought the reductive hypothesis to the inventors' attention. The redox potential is controlled by sophisticated set of diverse enzymes and this system is fed from generation of NADPH by multiple hydrogenases (FIG. 3B). Among them, the glucose-6-phosphate dehydrogenase (G6P) is most important, because it controls the rate limiting step of pentose phosphate pathway. The other important dehydrogenases are isocytrate dehydrogenases (cytoplasmic and mitochondrial, IDH1/2) and 6-phosphogluconate dehydrogenase (6PG). The next anti-oxidant cellular protection layer is thioredoxin and glutathione systems (FIG. 3B). The first one is composed of thioredoxin reductase (TrxR) and thioredoxin. […]

Data set [6] has as its system erythropoietin-dependent UT7 cells. Kind of data set: Growth of erythropoietin-dependent UT7 cells. The class given is cell-based.

On to `O=C1/C(=N/O)C=Cc2ccccc21` [N2N1, 1-naphthoquinone-2-monoxime], for which, in data set [1], the “expansion above regular replicative life span” value is recorded as ~25 doublings. In data set [2], the genotoxic effect entry was “did not show any detrimental effect on DNA integrity”. Also, in data set [3], the LD50 stood at 15 µM. In data set [4], the colonies formation entry is listed as “promote colonies formation” and the “total number of cells at end of 1st part of LTC-IC assay” value is “always larger”. Also, the “immediate response in mitochondrial respiration rate or glycolysis efficacy” value in data set [5] was “could not detect any immediate”.

In the case of `O=C1NC(=O)C(=NO)C(=O)N1` [VA, 2,4,5,6(1H,3H)-pyrimidine-tetrone 5-oxime], the “expansion above regular replicative life span” value in data set [1] is listed as ~25 doublings. In addition, the genotoxic effect result in data set [2] is recorded as “did not show any detrimental effect on DNA integrity”. The compound further had an LD50 in data set [3] of 5000 µM. Also, in data set [4], the colonies formation result is “promote colonies formation” and the “total number of cells at end of 1st part of LTC-IC assay” value is on record as “always larger”. The growth support entry in data set [6] was “does not support the growth”. Also, the “immediate response in mitochondrial respiration rate or glycolysis efficacy” value in data set [5] was “could not detect any immediate”.

Source of the values: US11723907B2, “Anti-aging compounds” (THE CLEVELAND CLINIC FOUNDATION, priority 2017, dated 2023).
